Legend:
[1] = system: Staphylococcus aureus (Gram-positive); test: Microbial kill study, log reduction of Staphylococcus aureus; assay type: cell-based
Experimental: (§1) Studies were conducted to determine the antimicrobial capabilities of cationic arginine derivatized surfactants produced according to embodiments of the subject invention.
(§2) The test organisms were a mixture of Gram-negative and Gram-positive organisms, which served to validate the breadth of the spectrum of control and the utility of the technology for common pathogens of public health concern: Pseudomonas aeruginosa (Gram-negative), Staphylococcus aureus (Gram-positive) and Salmonella entericus (Gram-negative).
(§3) Test bacteria were grown at 32° C. for 24-48 hours in tryptic soy broth, then plated at a starting concentration of 10^7. PBS was used for dilution to achieve the desired cell concentration.
(§4) A stock solution of each antimicrobial treatment was created in water, which was then used to create each desired dilution for treatment: 25, 50, 200, 400, 500, 750, 1,000, 1,500, 2,000 and 4,000 ppm, in an appropriate volume of buffer. Buffers included 100 mM of citric acid, ammonium HCL, PBS or sodium bicarbonate.
(§5) The created cell dilution of 10^7 CFU/mL was mixed with either 100 uL to 900 uL of antimicrobial at the appropriate PPM, or 1-9 mL of antimicrobial at the appropriate PPM. The final concentration of the organism was […] once mixed with the antimicrobial.
(§6) The moment the organism was added to the antimicrobial, the timer was started for the desired time period (0, 2, 5, 6 or 10 min). At the end of the timer, the antimicrobial was neutralized, and dilutions were then plated onto TSA plates and incubated for 24-48 hours at 32° C.
(§7) The negative control comprised 0.1 mL from the organism stock plated onto a TSA plate. For the positive control a serial dilution was set up with a starting concentration of 400 PPM quaternary ammonium compound (QAC) and organism. Dilutions were plated at 102, 103 and 104 CFU/mL.
(§8) After 24 to 48 hours of incubation, plates were removed from the incubator and colony numbers were counted.
(§9) The below scale is commonly used in determining a compound's efficacy, where a greater than or equal to 6-fold logarithmic (≥6 log) reduction in less than 10 minutes is needed for disinfection.
(§10) Table 9 summarizes surface tension reduction at 1000 ppm and log reduction of S. aureus and S. enterica at 0 and 10 min. (200 ppm) for four categories of cationic amino alcohol surfactants according to embodiments of the subject invention.
(§11) The surfactants were produced through the coupling of octanoyl chloride (C8); decanoyl chloride (C10); lauroyl chloride (C12); myristyroyl chloride (C14); palmitoyl chloride (C16); or a linear sophorolipid (SLP), with: arginine ethyl ester (R), histidine ethyl ester (H) or lysine ethyl ester (K).

[2] = system: Salmonella enterica (Gram-negative); test: Microbial kill study, log reduction of Salmonella enterica; assay type: cell-based
Experimental: as §1, §2, §3, §4, §5, §6, §7, §8, §9, §10, §11

[3] = Surface tension at 1000 ppm; assay type: physicochemical
Experimental: (§12) Table 8 summarizes surface tension reduction at 1000 ppm and log reduction of P. aeruginosa at 0 and 10 min. (200 ppm) for two C12 cationic amino alcohol surfactants according to embodiments of the subject invention, LRO (R) and LKO (K), where LRO was produced through the coupling of a lauroyl chloride substrate and arginine ethyl ester and LKO was produced through the coupling of a lauroyl chloride substrate and lysine ethyl ester.
as §10

[4] = system: Pseudomonas aeruginosa (Gram-negative); test: Microbial kill study, log reduction of Pseudomonas aeruginosa; assay type: cell-based
Experimental: as §1, §2, §3, §4, §5, §6, §7, §8, §9, §12

[5] = system: Staphylococcus aureus (G+); test: Stability study at pH 7 over 4 days, log reduction of S. aureus; assay type: cell-based; settings: pH 7, 100 ppm; for Activity Reduction S. aureus (G+) 100 ppm 5 min: loss of log reduction Day 0 to Day 4
Experimental: FIGS. 3A-3B depict a comparison of pH stability between lauryl arginine ethyl ester (LRE) and a cationic amino alcohol surfactant according to an embodiment of the subject invention (LRO) in different conditions of incubation at pH 7 (A) and pH 10 (B). Oven=45° C., 50% relative humidity; ambient=room temperature.
as §1, §2, §3, §4, §5, §6, §7, §8, §9
Tables 10-11 summarize the pH stability over 4 days for a C12 cationic amino alcohol surfactant according to embodiments of the subject invention, LRO (RO), compared with LAE (RE), where LRO was produced through the coupling of a lauroyl chloride substrate and arginine ethyl ester. Log reductions were measured according to the procedures described above in Example 7.

Salmonella enterica (G-) = test: Stability study at pH 7 over 4 days, log reduction of S. enterica; assay type: cell-based; settings: pH 7, 100 ppm; for Activity Reduction S. enterica (G-) 100 ppm 5 min: loss of log reduction Day 0 to Day 4

Compound | Log Reduction S. aureus (G+) 200 ppm, 0 min [1] | Log Reduction S. aureus (G+) 200 ppm, 10 min [1] | Log Reduction S. enterica (G-) 200 ppm, 0 min [2] | Log Reduction S. enterica (G-) 200 ppm, 10 min [2] | Surface Tension 1000 ppm ([3]; Table 9) | other results
CCCCCCCC(=O)NC(CO)Cc1c[nH]cn1 (centres unmarked) [C8 H O] | 0.00 | 0.00 | 0.00 | 0.00 | 57.78 mN/m | –
CCCCCCCC(=O)NC(CO)CCCNC(=N)N (centres unmarked) [C8 R O] | 0.00 | 0.87 | 0.00 | 0.00 | 32.15 mN/m | –
CCCCCCCCCC(=O)NC(CO)Cc1c[nH]cn1 (centres unmarked) [C10 H O] | 0.00 | 0.00 | 0.00 | 0.00 | 50.30 mN/m | –
CCCCCCCCCC(=O)NC(CO)CCCNC(=N)N (centres unmarked) [C10 R O] | 0.00 | 6.30 | 0.00 | 6.30 | 28.30 mN/m | –
CCCCCCCCCCCC(=O)NC(CO)Cc1c[nH]cn1 (centres unmarked) [C12 H O] | 0.00 | 0.00 | 0.00 | 0.00 | 27.36 mN/m | –
CCCCCCCCCCCC(=O)NC(CO)CCCCN (centres unmarked) [C12 K O] | 0.00 | 4.60 | 0.00 | 6.16 | 27.82 mN/m | Surface Tension 1000 ppm ([3]; Table 8): 27.82 mN/m; Log Reduction 200 ppm, 0 min (Pseudomonas aeruginosa) [4]: 0.54; Log Reduction 200 ppm, 10 min (Pseudomonas aeruginosa) [4]: 6.25
CCCCCCCCCCCC(=O)N[C@@H](CCCNC(=N)N)C(=O)OCC [C12 R E, lauroyl arginine ethyl ester, reference compound] | – | – | – | – | – | Log Reduction S. aureus (G+) 100 ppm, 0 min ([5]; Day 0 Stability): 0.00; Log Reduction S. aureus (G+) 100 ppm, 2 min ([5]; Day 0 Stability): 6.53; Log Reduction S. aureus (G+) 100 ppm, 5 min ([5]; Day 0 Stability): 6.53; Log Reduction S. aureus (G+) 100 ppm, 0 min ([5]; Day 4 Accelerated Stability): 0.00; Log Reduction S. aureus (G+) 100 ppm, 2 min ([5]; Day 4 Accelerated Stability): 0.93; Log Reduction S. aureus (G+) 100 ppm, 5 min ([5]; Day 4 Accelerated Stability): 1.14; Activity Reduction S. aureus (G+) 100 ppm 5 min [5]: 82.54%; Log Reduction S. enterica (G-) 100 ppm, 0 min (Salmonella enterica (G-); Day 0 Stability): 0.00; Log Reduction S. enterica (G-) 100 ppm, 2 min (Salmonella enterica (G-); Day 0 Stability): 6.42; Log Reduction S. enterica (G-) 100 ppm, 5 min (Salmonella enterica (G-); Day 0 Stability): 6.42; Log Reduction S. enterica (G-) 100 ppm, 0 min (Salmonella enterica (G-); Day 4 Accelerated Stability): 0.00; Log Reduction S. enterica (G-) 100 ppm, 2 min (Salmonella enterica (G-); Day 4 Accelerated Stability): 0.00; Log Reduction S. enterica (G-) 100 ppm, 5 min (Salmonella enterica (G-); Day 4 Accelerated Stability): 0.00; Activity Reduction S. enterica (G-) 100 ppm 5 min (Salmonella enterica (G-)): 100.00%
CCCCCCCCCCCC(=O)NC(CO)CCCNC(=N)N (centres unmarked) [C12 R O, lauryl argininol alcohol] | 0.00 | 6.24 | 0.00 | 6.20 | 23.75 mN/m | Log Reduction S. aureus (G+) 100 ppm, 0 min ([5]; Day 0 Stability): 0.00; Log Reduction S. aureus (G+) 100 ppm, 2 min ([5]; Day 0 Stability): 2.17; Log Reduction S. aureus (G+) 100 ppm, 5 min ([5]; Day 0 Stability): 6.53; Log Reduction S. aureus (G+) 100 ppm, 0 min ([5]; Day 4 Accelerated Stability): 0.00; Log Reduction S. aureus (G+) 100 ppm, 2 min ([5]; Day 4 Accelerated Stability): 0.76; Log Reduction S. aureus (G+) 100 ppm, 5 min ([5]; Day 4 Accelerated Stability): 6.53; Activity Reduction S. aureus (G+) 100 ppm 5 min [5]: 0.00%; Log Reduction S. enterica (G-) 100 ppm, 0 min (Salmonella enterica (G-); Day 0 Stability): 0.00; Log Reduction S. enterica (G-) 100 ppm, 2 min (Salmonella enterica (G-); Day 0 Stability): 1.32; Log Reduction S. enterica (G-) 100 ppm, 5 min (Salmonella enterica (G-); Day 0 Stability): 2.36; Log Reduction S. enterica (G-) 100 ppm, 0 min (Salmonella enterica (G-); Day 4 Accelerated Stability): 0.00; Log Reduction S. enterica (G-) 100 ppm, 2 min (Salmonella enterica (G-); Day 4 Accelerated Stability): 0.00; Log Reduction S. enterica (G-) 100 ppm, 5 min (Salmonella enterica (G-); Day 4 Accelerated Stability): 0.79; Activity Reduction S. enterica (G-) 100 ppm 5 min (Salmonella enterica (G-)): 66.53%; Surface Tension 1000 ppm ([3]; Table 8): 23.75 mN/m; Log Reduction 200 ppm, 0 min (Pseudomonas aeruginosa) [4]: 1.85; Log Reduction 200 ppm, 10 min (Pseudomonas aeruginosa) [4]: 6.25
CCCCCCCCCCCCCC(=O)NC(CO)Cc1c[nH]cn1 (centres unmarked) [C14 H O] | 0.00 | 0.00 | 0.00 | 0.00 | 22.77 mN/m | –
CCCCCCCCCCCCCC(=O)NC(CO)CCCNC(=N)N (centres unmarked) [C14 R O] | 0.00 | 6.36 | 0.00 | 6.11 | 39.54 mN/m | –
CCCCCCCCCCCCCCCC(=O)NC(CO)CCCNC(=N)N (centres unmarked) [C16 R O] | 0.00 | 4.10 | 0.00 | 2.86 | 37.63 mN/m | –
linear sophorolipid argininol amide [SLP R O] | 0.00 | 2.23 | 0.00 | 0.00 | 41.89 mN/m | –

From patent US20240301322A1, “FUNCTIONALIZED BIODEGRADABLE SURFACTANTS AND METHODS USE” (Locus Solutions IPCo, LLC, priority 2023, published 2024)
